In brackets after ≈: the same amount, converted by molar mass. Several values for one entry are separate records, joined by “and”; a condition that tells them apart may be missing. Equal values may be shown once. Each block holds one compound with its values, some of them ahead of it.
Key:
IL‐4, STAT6‐Luc = assay: IL-4-induced JAK-STAT6-luciferase assay in U937 monocytes; type: cell-based; conditions: Homo sapiens, U-937, interleukin at EC80
[1] = Caco permeability and efflux; type: in vitro ADME; conditions: human, Caco-2; for Papp A→B: read-out: Caco AtB
Source text: TABLE 2 In vitro and in vivo DMPK properties of Cmpd A, B & C | column: In vitro mouse & physical chemical properties / Caco AtB 10^−6 cm/s/Efflux ratio ^b

[2] = Mouse pharmacokinetics i.v./p.o.; type: in vivo; conditions: plasma, male C57Bl6 mice; for clearance / Vd: iv, i.v. 0.5-1.0 mg/kg; for Vd: read-out: V ss; for bioavailability: po, p.o. 300 (A), 1.0 (B), 2.0 (C) mg/kg, read-out: Oral % F
Procedure: (§1) Detailed description in Supplementary materials.
Pharmacokinetics and evaluation of compound exposures: Male C57/BL mice were obtained from Si Bei Fu and weighed approximately 20-30 grams (7-9 weeks) at the start of the pharmacokinetic study. Animals had free access to food and water during the course of the experiment. Dose formulations were prepared on the study day and were stirred at room temperature for at least 15 minutes prior dosing and during the administration event. Cmpd A, B and C were dosed at 0.5-1 mg/kg i.v. and 1-300 mg/kg p.o. The dorsal metatarsal vein was used for sampling and typically 0.02 mL blood was withdrawn. Blood was taken at 2, 5, 15, 45 min, 2, 4, 8, 24 hours post the i.v. dose and at 15, 30 min, 1, 2, 4, 8, 24 hours post the p.o. dose. Blood of each sample was transferred into plastic micro centrifuge tubes containing 2 μL of 1000 IU Heparin-Na anticoagulant. These tubes were then inverted several times and placed on wet ice prior to centrifugation at 10,000 rpm for 2 minutes at 4°C in order to collect plasma. Plasma samples were stored at -75±15°C prior analysis. Compound concentrations were analyzed using a LC-MS/MS method (see below).
Effective T1/2 equals Ln2 x Vss/CL.

[3] = Solubility in phosphate buffer; type: physicochemical; conditions: pH 7.4, aqueous buffer
Source text: TABLE 1 In vitro potency and selectivity of JAK inhibitors | column: Solubility (μM) ^c

[4] = Unbound fraction in tissue from rearranged Gillette equation; type: in vitro ADME, mouse; conditions: mouse; from rearranged Gillette equation, V blood 0.07 L/kg, V tissue 0.6 L/kg
Source text: as §1

[5] = Plasma protein binding by equilibrium dialysis; type: in vitro ADME; conditions: mouse plasma
Source text: as §1

JAK1 = JAK1 (Homo sapiens, UniProt P23458); assay: JAK1 kinase inhibition, Calliper assay; type: biochemical; conditions: physiological ATP concentration of 5 mM
LogD7.4 = type: physicochemical; conditions: pH 7.4
Source text: TABLE 2 In vitro and in vivo DMPK properties of Cmpd A, B & C | column: In vitro mouse & physical chemical properties / LogD7.4

[6] = tested on: C3H/HeJ mouse model of AA; assay: Hair growth (Hair Index Score) in C3H/HeJ graft-induced AA mice; type: in vivo; conditions: for hair growth, result in words: AA mice; for Hair index score (% area x score, 0 to 3): individual mice and mean±SD
Procedure: Female C3H/HeJ graft‐induced mice were used as a preclinical model of Alopecia Areata (AA) according to previous publications.[45], [46], [47] Healthy C3H/HeJ and mice with fully developed AA (16–24 weeks after induction of disease) were monitored by means of body weight and hair index score on a weekly basis for 12 weeks, with free access to food and water (Healthy and AA groups, respectively).
Hair growth was evaluated using a scoring index (Hair Index Score, HIS). A score from 0 to 3 (0 = no fur, 1 = stubble, short broken hairs, 2 = sparse, intermediate length hairs, 3 = normal length and density hairs) was taken times the surface area of the mouse with each respective score (dorsal area = 50%, ventral area = 50%).
12 mice were given once daily servings of Cmpd A for free eating at approximately 100 mg/kg (compound dissolved in 10 ml tap water and mixed with 5 g grounded R70 standard rodent chow from Lantmännen, Sweden) for 4 weeks. Typically, these servings were finished within 2 h. Six mice were terminated at the end of the treatment period, blood and skin taken for determination of drug concentration and skin sampled for histopathological evaluation (see below, these mice are representing the systemic JAK1 inhibition group in histopathological evaluations). Skin biopsies for mRNA expression and blood was sampled from the other 6 mice where after these mice were followed off treatment for an additional 8 weeks when terminal samples were taken (8w off Tx group).
Another set of 6 mice were treated topically on the right side of their back with Cmpd B (0.1% cream formulation, Eucerin Aquaporin rich) for 12 weeks (local JAK1 inhibition group). Initially, twice weekly for 2 weeks followed by once weekly due to high tissue retention. Plasma exposure was evaluated during the course of the study as well as at termination when also skin was sampled for exposure, histopathological evaluation and mRNA expression.
The aim of the study was to achieve similar skin exposures by both routes of administration but only systemic exposure after oral administration. […] Blood, skin, lymph nodes and spleens were collected at termination for evaluation of exposure, mRNA expression, histopathology (RNAScope) and cell differentials (flow cytometry). Untreated healthy and alopecic mice served as controls (n = 6).

[7] = topical application (local exposure)

Sequence of JAK1 (P23458 whole entry, species assumed): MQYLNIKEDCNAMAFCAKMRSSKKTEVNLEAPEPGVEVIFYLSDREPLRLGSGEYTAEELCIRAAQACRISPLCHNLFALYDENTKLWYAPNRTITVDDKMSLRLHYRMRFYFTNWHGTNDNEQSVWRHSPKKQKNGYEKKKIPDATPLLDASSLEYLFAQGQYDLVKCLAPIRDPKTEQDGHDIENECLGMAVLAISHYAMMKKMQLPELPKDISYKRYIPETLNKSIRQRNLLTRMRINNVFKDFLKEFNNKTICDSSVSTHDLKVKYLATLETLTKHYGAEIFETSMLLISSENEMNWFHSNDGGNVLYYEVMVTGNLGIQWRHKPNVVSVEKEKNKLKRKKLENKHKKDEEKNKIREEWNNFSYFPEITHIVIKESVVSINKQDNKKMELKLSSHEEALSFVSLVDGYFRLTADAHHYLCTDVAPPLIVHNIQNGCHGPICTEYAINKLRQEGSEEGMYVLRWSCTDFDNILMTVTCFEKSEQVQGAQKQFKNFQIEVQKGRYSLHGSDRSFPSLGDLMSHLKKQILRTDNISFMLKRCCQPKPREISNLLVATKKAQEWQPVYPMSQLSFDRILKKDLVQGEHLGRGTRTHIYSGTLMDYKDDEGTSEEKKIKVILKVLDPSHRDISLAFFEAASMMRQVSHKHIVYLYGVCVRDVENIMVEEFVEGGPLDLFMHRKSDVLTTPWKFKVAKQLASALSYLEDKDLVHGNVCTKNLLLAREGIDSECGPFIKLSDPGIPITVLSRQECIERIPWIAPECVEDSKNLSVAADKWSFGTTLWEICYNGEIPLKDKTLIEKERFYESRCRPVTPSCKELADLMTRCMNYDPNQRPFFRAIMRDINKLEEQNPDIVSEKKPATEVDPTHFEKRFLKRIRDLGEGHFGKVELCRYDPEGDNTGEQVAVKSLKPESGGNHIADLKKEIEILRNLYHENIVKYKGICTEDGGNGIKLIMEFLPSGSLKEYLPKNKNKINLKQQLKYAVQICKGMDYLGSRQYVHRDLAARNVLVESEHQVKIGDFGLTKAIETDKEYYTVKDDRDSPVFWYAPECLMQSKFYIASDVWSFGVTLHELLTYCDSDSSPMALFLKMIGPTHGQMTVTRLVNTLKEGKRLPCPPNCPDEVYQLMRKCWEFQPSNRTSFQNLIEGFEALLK

IC50 (IL‐4, STAT6‐Luc): 110 nM
efflux ratio ([1]; Efflux ratio = BtA/AtB): 14
Papp A→B [1]: 0.3 ×10⁻⁶ cm/s
clearance [2]: 38 mL/min/kg
Vd [2]: 8.4 L/kg
bioavailability [2]: 16%
solubility [3]: > 955 µM
f u, tissue [4]: 0.063
f u, plasma [5]: 0.74
IC50 (JAK1): 9.3 nM
logD (LogD7.4): 1.5
Compound: Cc1cnc(Nc2cc(N3C[C@@H]4C[C@H]3CN4C)cnc2F)nc1N[C@H](C)[C@H](C)CO [Cmpd B, (2S,3R)-3-{[2-({2-fluoro-5-[(1S,4S)-5-methyl-2,5-diazabicyclo[2.2.1]heptan-2-yl]pyridin-3-yl}amino)-5-methylpyrimidin-4-yl]amino}-2-methylbutan-1-ol]
hair growth, result in words [6, 7]: did not restore hair growth
Hair index score (% area x score, 0 to 3) ([6]; Local JAK1i (0.1% cream topical), treated side, w0, n=6): 50 and 0
Hair index score (% area x score, 0 to 3) ([6]; Local JAK1i (0.1% cream topical), treated side, w0, n=6, mean): 17±26
Hair index score (% area x score, 0 to 3) ([6]; Local JAK1i (0.1% cream topical), untreated side, w0, n=6): 30 and 0 and 10
Hair index score (% area x score, 0 to 3) ([6]; Local JAK1i (0.1% cream topical), untreated side, w0, n=6, mean): 7±12
Hair index score (% area x score, 0 to 3) ([6]; Local JAK1i, treated side, w1): 50 and 0 and 100
Hair index score (% area x score, 0 to 3) ([6]; Local JAK1i, treated side, w1, mean): 25±42
Hair index score (% area x score, 0 to 3) ([6]; Local JAK1i, treated side, w4): 80 and 0 and 10 and 20
Hair index score (% area x score, 0 to 3) ([6]; Local JAK1i, treated side, w4, mean): 18±31
Hair index score (% area x score, 0 to 3) ([6]; Local JAK1i, treated side, w6): 200 and 0 and 50 and 30
Hair index score (% area x score, 0 to 3) ([6]; Local JAK1i, treated side, w6, mean): 47±78
Hair index score (% area x score, 0 to 3) ([6]; Local JAK1i, treated side, w7): 200 and 80 and 0 and 100
Hair index score (% area x score, 0 to 3) ([6]; Local JAK1i, treated side, w7, mean): 80±75
Hair index score (% area x score, 0 to 3) ([6]; Local JAK1i, treated side, w8): 200 and 0 and 50 and 100
Hair index score (% area x score, 0 to 3) ([6]; Local JAK1i, treated side, w8, mean): 58±80
Hair index score (% area x score, 0 to 3) ([6]; Local JAK1i, treated side, w9): 240 and 0 and 25 and 70 and 90
Hair index score (% area x score, 0 to 3) ([6]; Local JAK1i, treated side, w9, mean): 71±91
Hair index score (% area x score, 0 to 3) ([6]; Local JAK1i, treated side, w11): 240 and 0 and 100 and 80
Hair index score (% area x score, 0 to 3) ([6]; Local JAK1i, treated side, w11, mean): 70±94
Hair index score (% area x score, 0 to 3) ([6]; Local JAK1i, untreated side, w1): 40 and 0 and 100
Hair index score (% area x score, 0 to 3) ([6]; Local JAK1i, untreated side, w1, mean): 23±41
Hair index score (% area x score, 0 to 3) ([6]; Local JAK1i, untreated side, w4): 70 and 0 and 10 and 30
Hair index score (% area x score, 0 to 3) ([6]; Local JAK1i, untreated side, w4, mean): 18±28
Hair index score (% area x score, 0 to 3) ([6]; Local JAK1i, untreated side, w6): 170 and 0 and 10 and 20
Hair index score (% area x score, 0 to 3) ([6]; Local JAK1i, untreated side, w6, mean): 33±67
Hair index score (% area x score, 0 to 3) ([6]; Local JAK1i, untreated side, w7): 170 and 0
Hair index score (% area x score, 0 to 3) ([6]; Local JAK1i, untreated side, w7, mean): 28±69
Hair index score (% area x score, 0 to 3) ([6]; Local JAK1i, untreated side, w8): 170 and 0 and 10
Hair index score (% area x score, 0 to 3) ([6]; Local JAK1i, untreated side, w8, mean): 30±69
Hair index score (% area x score, 0 to 3) ([6]; Local JAK1i, untreated side, w9): 200 and 0 and 25
Hair index score (% area x score, 0 to 3) ([6]; Local JAK1i, untreated side, w9, mean): 37±80
Hair index score (% area x score, 0 to 3) ([6]; Local JAK1i, untreated side, w11): 200 and 0 and 30 and 50
Hair index score (% area x score, 0 to 3) ([6]; Local JAK1i, untreated side, w11, mean): 47±78

IC50 (IL‐4, STAT6‐Luc): 24 nM
Papp A→B [1]: 6.7 ×10⁻⁶ cm/s
clearance [2]: 26 mL/min/kg
Vd [2]: 6.9 L/kg
bioavailability [2]: 86%
solubility [3]: 6.6 µM (≈ 3.96 µg/mL)
f u, tissue [4]: 0.011
f u, plasma [5]: 0.11
IC50 (JAK1): < 3 nM
logD (LogD7.4): 2.6
Compound: COCC(C(=O)Nc1cccc2c(-c3nc(Nc4cccc(S(C)(=O)=O)c4F)ncc3F)c[nH]c12)N1CCN(C)CC1 (centres unmarked) [Cmpd C]
hair growth, result in words ([6]; oral daily servings (systemic exposure)): induced hair growth
hair growth, result in words [6, 7]: did not

Source: PMC10233092, “Selective Janus kinase 1 inhibition resolves inflammation and restores hair growth offering a viable treatment option for alopecia areata” (Skin Health and Disease, 2023)
